These results are taken from ChEMBL document CHEMBL5308504, “Tm Shift (DSF) assay results for EUbOPEN Chemogenomics Library” (2023).

One assay concerns the target T1, Peregrin (Homo sapiens) (UniProt P55201).
T1 sequence (whole entry): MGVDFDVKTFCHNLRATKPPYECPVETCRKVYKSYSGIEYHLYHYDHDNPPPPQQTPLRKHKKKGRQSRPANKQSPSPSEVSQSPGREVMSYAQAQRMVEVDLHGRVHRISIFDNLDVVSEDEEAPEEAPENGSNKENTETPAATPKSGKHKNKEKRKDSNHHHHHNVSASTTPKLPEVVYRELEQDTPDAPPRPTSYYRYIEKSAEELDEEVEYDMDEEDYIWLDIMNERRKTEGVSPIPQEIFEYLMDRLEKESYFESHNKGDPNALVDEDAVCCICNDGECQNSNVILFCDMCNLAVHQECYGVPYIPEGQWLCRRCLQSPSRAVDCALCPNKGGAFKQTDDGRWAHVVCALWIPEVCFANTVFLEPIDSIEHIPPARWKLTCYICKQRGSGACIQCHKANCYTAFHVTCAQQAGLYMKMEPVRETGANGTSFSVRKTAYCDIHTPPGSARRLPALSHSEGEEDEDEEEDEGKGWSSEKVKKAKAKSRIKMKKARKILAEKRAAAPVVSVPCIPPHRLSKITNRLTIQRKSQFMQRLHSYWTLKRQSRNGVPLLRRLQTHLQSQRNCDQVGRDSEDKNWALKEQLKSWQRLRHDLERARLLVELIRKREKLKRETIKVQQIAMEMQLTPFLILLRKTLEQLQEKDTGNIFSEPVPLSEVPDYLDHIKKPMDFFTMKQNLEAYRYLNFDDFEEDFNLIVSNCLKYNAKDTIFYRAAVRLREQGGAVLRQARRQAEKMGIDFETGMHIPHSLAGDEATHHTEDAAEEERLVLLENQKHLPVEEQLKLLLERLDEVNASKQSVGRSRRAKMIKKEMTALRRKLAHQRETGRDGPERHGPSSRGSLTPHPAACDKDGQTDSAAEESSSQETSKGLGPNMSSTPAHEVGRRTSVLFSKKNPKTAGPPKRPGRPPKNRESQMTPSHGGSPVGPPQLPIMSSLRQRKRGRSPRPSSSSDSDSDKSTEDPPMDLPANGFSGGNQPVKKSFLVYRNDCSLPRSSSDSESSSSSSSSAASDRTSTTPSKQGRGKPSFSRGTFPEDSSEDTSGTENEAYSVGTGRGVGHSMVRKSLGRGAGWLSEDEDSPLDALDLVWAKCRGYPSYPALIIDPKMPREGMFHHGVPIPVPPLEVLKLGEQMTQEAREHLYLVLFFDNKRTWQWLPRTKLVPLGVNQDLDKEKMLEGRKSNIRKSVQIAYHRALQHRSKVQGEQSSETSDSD
To be noted: Compound concentration 20.0 uM, Protein concentration 2.0 uM, Result type QC Liability.

Assay [1] has as its target Fibroblast growth factor receptor 3 (Homo sapiens) (UniProt P22607). The settings on record: Compound concentration 20.0 uM, Protein concentration 2.0 uM, Result type QC Liability.

Molecules are shown by their SMILES. “And” between values parts separate entries of the source, which are not always exact repeats. Identical values can stand only once.

A word on the ΔTm: it is the shift of the melting midpoint relative to a reference.

Fibroblast growth factor receptor 3 (Homo sapiens), sequence (P22607 23-806 limits assumed): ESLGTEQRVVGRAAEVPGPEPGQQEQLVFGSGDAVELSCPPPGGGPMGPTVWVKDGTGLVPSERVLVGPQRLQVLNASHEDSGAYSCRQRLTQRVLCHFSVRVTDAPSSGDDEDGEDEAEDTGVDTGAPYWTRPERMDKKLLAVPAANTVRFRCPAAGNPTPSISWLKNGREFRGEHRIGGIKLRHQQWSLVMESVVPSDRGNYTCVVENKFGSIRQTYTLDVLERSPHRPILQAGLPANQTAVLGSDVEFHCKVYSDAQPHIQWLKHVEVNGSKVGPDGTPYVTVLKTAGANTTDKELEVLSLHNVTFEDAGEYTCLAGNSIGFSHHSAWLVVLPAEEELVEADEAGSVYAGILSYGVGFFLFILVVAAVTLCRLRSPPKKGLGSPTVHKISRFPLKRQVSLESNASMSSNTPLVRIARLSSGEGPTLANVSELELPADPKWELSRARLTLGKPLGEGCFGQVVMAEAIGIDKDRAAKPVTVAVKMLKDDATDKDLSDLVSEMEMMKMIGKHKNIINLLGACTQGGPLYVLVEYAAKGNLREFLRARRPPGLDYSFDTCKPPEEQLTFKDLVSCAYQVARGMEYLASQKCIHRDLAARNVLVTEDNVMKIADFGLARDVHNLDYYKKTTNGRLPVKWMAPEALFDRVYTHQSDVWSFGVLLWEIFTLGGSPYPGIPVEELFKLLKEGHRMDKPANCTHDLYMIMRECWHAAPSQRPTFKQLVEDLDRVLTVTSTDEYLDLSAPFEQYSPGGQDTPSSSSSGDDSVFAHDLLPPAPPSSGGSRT

Take `CCC(=O)O[C@@H](OP(=O)(CCCCc1ccccc1)CC(=O)N1C[C@H](C2CCCCC2)C[C@H]1C(=O)O)C(C)C` (some centres not stated): the values for the ΔTm (on Peregrin (Homo sapiens); in assay [1]) were -1.88 °C and 0.42 °C, respectively.
Taken in the same sequence, the figures for `Oc1c(CN2CCCC2)cc(COCc2ccccc2)c2cccnc12` were -2.08 °C and 0.61 °C.
On the same counts, the results for `C[C@@H]1OCC2(CCN(c3cnc(Sc4ccnc(N)c4Cl)c(N)n3)CC2)[C@@H]1N` are -1.53 °C and 0.48 °C.
On the same counts, the results for `O=C(Nc1ccc(C(O)(C(F)(F)F)C(F)(F)F)cc1)c1ccc(C(F)(F)F)cc1` are 0.72 °C and 2.93 °C.
For the molecule `CN(C)[C@H]1CC[C@H](Nc2ncc3ncnc(Nc4ccc(F)c(Cl)c4)c3n2)CC1`, the ΔTm amounted to 1.59 °C on Peregrin (Homo sapiens) and 0.8 °C in assay [1].
Taken in the same sequence, the figures for `Cn1nccc1-c1ccc(Sc2cccc(C3(C(N)=O)CCOCC3)c2)cc1` were -2.35 °C and 0.47 °C.
On the same counts, the results for `O=C(NCc1ccc(F)cc1)C1CCN(S(=O)(=O)c2cc(Cl)cc(Cl)c2)CC1` are -1.81 °C and 0.9 °C.
On the same counts, the results for `COc1ccc(OC(=O)N(CC(=O)O)Cc2ccc(OCCc3nc(-c4ccccc4)oc3C)cc2)cc1` are -1.99 °C and 0.89 °C.
Regarding `CC(C)(C)OC(=O)CN(Cc1ccc(Cl)cc1)Cc1ccc([N+](=O)[O-])s1`, the ΔTm on Peregrin (Homo sapiens) is -0.13 °C; in assay [1], 0.88 °C.
On the same counts, the results for `CCN1CCN(Cc2ccc(C(=O)Nc3ccc(C)c(Oc4ccc5c(c4)CC(=O)N5)c3)cc2C(F)(F)F)CC1` are -1.47 °C and 3.22 °C.
Taken in the same sequence, the figures for `Nc1ncc2c(n1)-c1c([nH]c3ccc(C4=CCOCC4)cc13)CCC2` were -2.26 °C and 1.34 °C.
On the same counts, the results for `O=C1Nc2ccc(C(=O)c3ccco3)cc2C1=Cc1cc(Cl)c(O)c(Cl)c1` are 0.59 °C and 2.35 °C.
As for `CC1CCN(C(=O)[C@@H](CCn2cccc2C#N)NS(=O)(=O)c2cccc3[nH]ccc23)CC1`, the thermal shift (ΔTm) at Peregrin (Homo sapiens) was -3.16 °C; in assay [1] it was 0.36 °C.
Turning to `Cn1cc(C(=O)O)c2ccc(N3CCC(OCc4c(-c5c(Cl)cccc5Cl)noc4C4CC4)CC3)cc21`, the thermal shift (ΔTm) at Peregrin (Homo sapiens) is -1.9 °C; in assay [1], 0.91 °C.
As for `N#Cc1ccc(C#CC[C@@H](C#N)NC(=O)[C@H]2CCCCN2)cc1F`, the ΔTm on Peregrin (Homo sapiens) is -2.24 °C; in assay [1], 0.88 °C.
Taken in the same sequence, the figures for `Cc1cc(C)nc(Nc2ncc(C(=O)NCCc3c(C)[nH]c4ccccc34)cn2)c1` were -2.14 °C and 0.85 °C.
On the same counts, the results for `O=C(O)c1cc(-c2ccccc2)ccc1O` are -0.36 °C and 0.62 °C.
Taken in the same sequence, the figures for `CCOc1ccc(S(=O)(=O)Nc2ccc(Cl)cc2C#Cc2cnc(C(=O)O)cc2OC)c2ncccc12` were -1.33 °C and -5.78 °C.
On to `Nc1nccc(-c2c(-c3ccc(F)cc3)ncn2C2CCN(Cc3ccon3)CC2)n1`, for which the ΔTm on Peregrin (Homo sapiens) was -1.77 °C; in assay [1], 0.95 °C.
On the same counts, the results for `CC(C)N1CCN(Cc2cnc(-c3cc(-c4cccc5[nH]ccc45)cc4[nH]ncc34)o2)CC1` are 0.22 °C and 1.84 °C.
Taken in the same sequence, the figures for `Cc1nc(-c2ccc(C(F)(F)F)cc2)sc1C(=O)NCc1ccc(OC(C)(C)C(=O)O)cc1` were -1.41 °C and 0.71 °C.
As to `Cc1cc(S(=O)(=O)N2CC(C)(C)c3cc(-c4ccc(C(F)(F)F)cc4)ccc32)ccc1OCC(=O)O`, the ΔTm on Peregrin (Homo sapiens) was -7.85 °C; in assay [1] it was 0.47 °C.
Taken in the same sequence, the figures for `Cn1cc(Nc2nccc(N3CC4CCC(C3)N4C(=O)[C@@H]3CC3(F)F)n2)cn1` were -0.71 °C and 2.58 °C.
On the same counts, the results for `C[C@H](CCC(=O)O)[C@H]1CC[C@H]2[C@@H]3CC[C@@H]4C[C@H](O)CC[C@]4(C)[C@H]3C[C@H](O)[C@]12C` are -1.82 °C and 0.63 °C.
On the same counts, the results for `CCc1c(-c2ccc3[nH]ncc3c2)cnc(N)c1-c1ccc(O)cc1` are -1.61 °C and 2.78 °C.
Regarding `CC(=O)Nc1nc(C)c(S(=O)(=O)Nc2ccc(C(O)(C(F)(F)F)C(F)(F)F)cc2)s1`, the ΔTm is -0.9 °C on Peregrin (Homo sapiens) and 0.63 °C in assay [1].
On the same counts, the results for `Cc1c(-c2c(F)cc(C(N)=O)c3[nH]c4c(c23)CC[C@H](C(C)(C)O)C4)cccc1-n1c(=O)c2cccc(F)c2n(C)c1=O` are -3.49 °C and -3.27 °C.
Taken in the same sequence, the figures for `CCn1c(-c2nonc2N)nc2cncc(C(=O)N3CC[C@H](N)C3)c21` were -1.78 °C and 0.35 °C.
With `O=C(CNC(=O)c1ccc(-c2ccccc2)cc1)NC1CCCc2ccccc21` (configuration not stated), the ΔTm is -4.59 °C at Peregrin (Homo sapiens) and 0.59 °C in assay [1].
Taken in the same sequence, the figures for `C[C@@H]1COCCN1c1cc(=O)n2c(n1)N(Cc1cncc(Cl)c1)[C@H](C(F)(F)F)CC2` were -3.92 °C and 0.57 °C.
On the same counts, the results for `CCc1cc2c(cc1N1CCC(N3CCOCC3)CC1)C(C)(C)c1[nH]c3cc(C#N)ccc3c1C2=O` are -1 °C and 0.56 °C.
Taken in the same sequence, the figures for `CN(C)C(=O)Cn1cc(-c2nc([C@@](C)(c3ccc(-c4cnc(N)nc4)cc3)C3CC3)no2)cn1` were -1.93 °C and 0.61 °C.
Take `CC(C)Nc1ncnc2cc(OCc3cccc([S@@](C)(=N)=O)c3)c(Br)cc12`: the ΔTm was -2.23 °C on Peregrin (Homo sapiens) and 1.64 °C in assay [1].
Taken in the same sequence, the figures for `CC[C@H](CO)Nc1nc(Nc2cccc(-c3ccccn3)c2)c2ncn(C(C)C)c2n1` were -2.18 °C and 2.78 °C.
On the same counts, the results for `CC1(C)Cc2nc(C3CCCC3)c([C@@H](F)c3ccc(C(F)(F)F)cc3)c(C3CCCCC3)c2[C@@H](O)C1` are -1.29 °C and 1.5 °C.
As for `Nc1ncnc2c1c(I)cn2[C@@H]1O[C@H](CO)[C@@H](O)[C@H]1O`, the values for the ΔTm (at Peregrin (Homo sapiens); in assay [1]) were -1.79 °C and 3.13 °C, respectively.
On the same counts, the results for `C[C@@H]1C[C@H](C)CN(c2ncc(Cl)c(Nc3ccc4c(c3)cc(OC(C)(C)C(=O)O)c(=O)n4C)n2)C1` are -3.96 °C and 0.41 °C.
On the same counts, the results for `COc1cc(-c2cc3ncccc3c(OC[C@H]3CNC(=O)C3)n2)cc(OC)c1OC1CCOCC1` are -1.09 °C and 1.16 °C.
On to `CC(C)(C)NC(=O)c1cncn1C1CCN(c2ccc(-c3nnc(C(F)(F)F)o3)cn2)CC1`, for which the ΔTm at Peregrin (Homo sapiens) is -2.22 °C; in assay [1], 0.91 °C.
For `Cc1ccc(-n2nc(C(C)(C)C)cc2NC(=O)Nc2ccc(OCCN3CCOCC3)c3ccccc23)cc1`, the ΔTm on Peregrin (Homo sapiens) was -3.09 °C and -0.42 °C; in assay [1] it was 3.18 °C and 3.23 °C.
For `COc1cc2c(cc1CC=C(C)C)C(=O)C[C@@H](c1ccc(O)cc1)O2`, the values for the ΔTm (on Peregrin (Homo sapiens); in assay [1]) were 1.25 °C and 2.85 °C, respectively.
Taken in the same sequence, the figures for `CC(C)(C)C(=O)NCc1ccc(Cl)c(C(=O)Nc2ncc[nH]2)c1` were -2.86 °C and 0.47 °C.
`O=C(Nc1cc2cc[nH]c(=O)c2cc1Cl)[C@H]1CNC[C@@H]1c1cccnc1`: the ΔTm was -0.61 °C on Peregrin (Homo sapiens) and 0.4 °C in assay [1].
Taken in the same sequence, the figures for `CN(C)C(=O)Cn1cc(-c2ccc(-c3cncc4ccccc34)cc2)cn1` were -2.52 °C and 0.29 °C.
`Nc1nccc(-c2c(-c3ccc(F)cc3)ncn2C2CCCCC2)n1`: the ΔTm at Peregrin (Homo sapiens) was -0.2 °C; in assay [1] it was 0.92 °C.
On the same counts, the results for `C[C@H]1CN(C2COC2)CCN1c1ccc(Nc2cc(-c3ccnc(N4CCn5c(cc6c5CC(C)(C)C6)C4=O)c3CO)cn(C)c2=O)nc1` are -2.12 °C and 4.28 °C.
Taken in the same sequence, the figures for `CN(C(=O)c1cnn2cccnc12)c1cc2c(cc1N1CCOCC1)C(=O)N(C[C@@H](F)C(C)(C)O)C2` were -1.49 °C and 1.38 °C.
With `COc1ccc(COc2ccc(Cc3cnc(N)nc3N)cc2OC)cc1`, the ΔTm is -1.34 °C at Peregrin (Homo sapiens) and 0.48 °C in assay [1].
On the same counts, the results for `O=C1Nc2nc(-c3c(O)cccc3OCC3CC3)cc([C@@H]3CCCNC3)c2CO1` are -2.51 °C and 1.04 °C.
As to `CN1C(=O)Cc2ccc(-c3ccc(C[C@@H](C#N)NC(=O)[C@@H]4N[C@H]5CC[C@@H]4C5)c(F)c3)cc21`, the ΔTm on Peregrin (Homo sapiens) was found to be 1.91 °C; in assay [1], 0.66 °C.
Taken in the same sequence, the figures for `NCc1ccc(OCCCc2sc(-c3ccc4c(c3)/C(=N/Nc3nc5ccccc5s3)CCC4)nc2C(=O)O)cc1` were -3.06 °C and 0.58 °C.
